Entries after “also recorded” stand apart in the source; their conditions may differ. Where a SMILES comes first, the peptide text is derived from it.
Legend:
Format in all cases: in vivo
Townes SCD mice [1] = assay: Serum RBC hemolysis biomarkers (total bilirubin, LDH) in Townes SCD mice treated for 4 weeks; conditions: for LDH / Total bilirubin: serum, 4 weeks
Experimental: (§1) Compound 46, a hepcidin mimetic, was administered subcutaneously at 1.0 mg/kg (group 3, N=9) or 2.5 mg/kg (group 4, N=9) in Townes SCD mice. 36 Townes SCD and 6 129S1/SvlmJ (wild-type), female mice, 5 weeks old upon delivery. A control group of wild-type mice (groups 1, N=6) was treated with vehicle as well as another SCD mice (group 2, N=9). All mice were dosed three times per week (TIW). All mice were maintained on an iron-adjusted diet (TD.140258, 35 ppm iron) throughout the study. Collections and necropsies were performed 24 hours post-last dose of compound or vehicle. After 4 weeks on study, animals from each group were euthanized, EDTA whole blood collected for CBC and serum was collected for hemolysis biomarker analysis. Spleens and livers were weighed at terminus. Liver, spleen, kidney, heart and brain were collected for future analysis. Serum and urine were collected to analyze chemistry markers, such as bilirubin, LDH (lactate dehydrogenase), haptoglobin, urine creatinine, urine total protein and urine urea nitrogen.
Serum total bilirubin and serum lactate dehydrogenase are hemolysis biomarkers.

Townes SCD mice [2] = assay: Complete blood count (hematological parameters) in Townes SCD mice treated for 4 weeks; conditions: for % Retics / Abs Retics / HCT / HGB / MCH / MCHC / MCV / RBC: 4 weeks
Experimental: as §1
As shown in FIG. 4A and FIG. 4B, reticulocytes were counted both with the automated analyzer as well as manually from a new methylene blue stained blood smear by counting the number of positive stained cells encountered in 500 erythrocytes and calculating the percentage.

Townes SCD mice [3] = assay: Spleen and liver weights and organ to body weight ratios at terminus in Townes SCD mice
Experimental: as §1, with “Compound 46, a hepcidin mimetic, was administered subcutaneously at 1.0 mg/kg (group 3, N=9) or 2.5 mg/kg (group 4, N=9) in Townes SCD mice.” left out

[4] = Dose 1 (mg/kg subcutaneously TIW)
[5] = Dose 2.5 (mg/kg subcutaneously TIW)

CCCCCCCCCCCCCCCC(=O)N[C@@H](CCC(=O)NCCCC[C@@H]1NC(=O)[C@H]([C@@H](C)CC)NC(=O)[C@@H](NC(=O)[C@@H]2CCCN2C(=O)[C@H](Cc2ccccc2)NC(=O)[C@H](Cc2cnc[nH]2)NC(=O)[C@@H](NC(=O)[C@H](CCC(=O)O)NC(=O)CC(C)C)[C@@H](C)O)CSSC[C@@H](C(=O)N[C@@H](CCCCN)C(N)=O)NC(=O)CNC(=O)[C@H](CCCCN)NC(=O)[C@H](CO)NC(=O)[C@H](CCCNC(=N)N)NC(=O)[C@@H]2CCCN2C(=O)[C@H](CCC(=O)O)NC(=O)[C@H](Cc2ccccc2)NC1=O)C(=O)O [Compound 46, Isovaleric_Acid-ETHFPCI(K(IsoGlu_Palm))FEPRSKGCK-NH2] (HELM PEPTIDE1{[CC(C)CC(=O)[*:2]].E.T.H.F.P.C.I.K.F.E.P.R.S.K.G.C.K.[am]}|PEPTIDE2{[CCCCCCCCCCCCCCCC(=O)[*:2]].[gGlu]}$PEPTIDE1,PEPTIDE2,9:R3-2:R2|PEPTIDE1,PEPTIDE1,7:R3-17:R3$$$V2.0)
Serum total bilirubin (Townes SCD mice [1]; result in words, FIG. 9A): significantly reduced both parameters in a dose dependent manner | Serum lactate dehydrogenase (LDH) (Townes SCD mice [1]; result in words, FIG. 9B): significantly reduced both parameters in a dose dependent manner | LDH (Townes SCD mice [1]; [4]): 610.6 ± 341.0 U/L | Total bilirubin (Townes SCD mice [1]; [4]): 2.16 ± 0.34 mg/dL | LDH (Townes SCD mice [1]; [5]): 372.3 ± 70.96 U/L | Total bilirubin (Townes SCD mice [1]; [5]): 1.13 ± 0.37 mg/dL | RBC count (Townes SCD mice [2]; 2.5 mg/kg dose, result in words, FIG. 3A): significantly reduced | Percent of reticulocytes compared to vehicle control (Townes SCD mice [2]; 2.5 mg/kg dose, result in words, FIG. 4B): decreased percent of reticulocytes significantly | Mean corpuscular hemoglobin concentration (MCHC) compared to vehicle control (Townes SCD mice [2]; 2.5 mg/kg, result in words, FIG. 6B): significant increase in MCHC | % Retics (Townes SCD mice [2]; [4]): 65.78 ± 12.23% | Abs Retics (Townes SCD mice [2]; [4]): 2612 ± 627.9 K/uL | HCT (Townes SCD mice [2]; [4]): 29.62 ± 3.45 % | HGB (Townes SCD mice [2]; [4]): 5.89 ± 0.93 g/dL | MCH (Townes SCD mice [2]; [4]): 9.89 ± 0.45 pg | MCHC (Townes SCD mice [2]; [4]): 19.82 ± 1.65 g/dL | MCV (Townes SCD mice [2]; [4]): 50.11 ± 3.41 fL | RBC (Townes SCD mice [2]; [4]): 5.94 ± 0.78 M/uL | % Retics (Townes SCD mice [2]; [5]): 50.33 ± 6.73 % | Abs Retics (Townes SCD mice [2]; [5]): 1195 ± 246.5 K/uL | HCT (Townes SCD mice [2]; [5]): 16.27 ± 7.23 % | HGB (Townes SCD mice [2]; [5]): 4.39 ± 0.36 g/dL | MCH (Townes SCD mice [2]; [5]): 9.82 ± 0.63 pg | MCHC (Townes SCD mice [2]; [5]): 23.22 ± 3.10 g/dL | MCV (Townes SCD mice [2]; [5]): 42.56 ± 3.81 fL | RBC (Townes SCD mice [2]; [5]): 4.49 ± 0.55 M/uL | Hgb level (Townes SCD mice [2]; result in words, FIG. 3B): significantly reduced in all three dose groups | Hematocrit (HCT) (Townes SCD mice [2]; result in words, FIG. 5A): significant reduction of HCT in a dose dependent manner | Mean corpuscular volume (MCV) compared to the vehicle group (Townes SCD mice [2]; result in words, FIG. 5B): significant reduction of MCV in a dose dependent manner | Mean corpuscular hemoglobin (MCH) compared to vehicle control (Townes SCD mice [2]; result in words, FIG. 6A): significant reduction in MCH | White blood cell (WBC) count (Townes SCD mice [2]; result in words, FIG. 7A): significant WBC and lymphocyte reduction in a dose dependent manner; also recorded: alleviated elevated white blood cell (WBC) and lymphocytes counts | Lymphocyte count (Townes SCD mice [2]; result in words, FIG. 7B): significant WBC and lymphocyte reduction in a dose dependent manner; also recorded: alleviated elevated white blood cell (WBC) and lymphocytes counts | Neutrophil count (Townes SCD mice [2]; result in words, FIG. 8A): significantly decreased neutrophil count in a dose dependent manner; also recorded: alleviated elevated neutrophil and monocyte counts | Monocyte count (Townes SCD mice [2]; result in words, FIG. 8B): alleviated elevated neutrophil and monocyte counts | Liver Weight (Townes SCD mice [3]; SCD mice, Dose 1): 1.290 g | Liver:BW Ratio (Townes SCD mice [3]; SCD mice, Dose 1): 0.0633 g/g | Spleen Weight (Townes SCD mice [3]; SCD mice, Dose 1): 1.035 g | Spleen:BW Ratio (Townes SCD mice [3]; SCD mice, Dose 1): 0.0508 g/g | Liver Weight (Townes SCD mice [3]; SCD mice, Dose 2.5): 1.138 g | Liver:BW Ratio (Townes SCD mice [3]; SCD mice, Dose 2.5): 0.0573 g/g | Spleen Weight (Townes SCD mice [3]; SCD mice, Dose 2.5): 0.725 g | Spleen:BW Ratio (Townes SCD mice [3]; SCD mice, Dose 2.5): 0.0365 g/g | Liver Weight (Townes SCD mice [3]; SCD mice, Dose 7.5): 0.758 g | Liver:BW Ratio (Townes SCD mice [3]; SCD mice, Dose 7.5): 0.0549 g/g | Spleen Weight (Townes SCD mice [3]; SCD mice, Dose 7.5): 0.301 g | Spleen:BW Ratio (Townes SCD mice [3]; SCD mice, Dose 7.5): 0.0217 g/g | Spleen weights compared to vehicle (Townes SCD mice [3]; SCD mice, result in words, FIG. 1A): significantly and dose-dependently lower | Spleen to body weight ratios compared to vehicle (Townes SCD mice [3]; SCD mice, result in words, FIG. 1B): significantly and dose-dependently lower | Liver weight compared to vehicle treated SCD mice (Townes SCD mice [3]; SCD mice, result in words, FIG. 2A): significantly lower in a dose dependent manner | Liver to body weight ratios compared to vehicle treated SCD mice (Townes SCD mice [3]; SCD mice, result in words, FIG. 2B): significantly lower in a dose dependent manner | Spleen size (Townes SCD mice [3]; Townes SCD mice, figure legend FIG. 1A/1B): reduces spleen size | Liver size (Townes SCD mice [3]; Townes SCD mice, figure legend FIG. 2A/2B): reduces liver size

Source: patent US20240016895A1, “HEPCIDIN MIMETICS FOR TREATMENT OF SICKLE CELL DISEASE” (Protagonist Therapeutics, Inc., priority 2022, published 2024)
